Measured values reported in the supplement of paper PMC10307832.

Each cell line was assayed with O=C(Nc1cc(C(F)(F)F)cc(C(F)(F)F)c1)c1cc(Cl)ccc1O [IMD-0354] + N=C(N)NC(=N)NCCc1ccccc1 [Phenformin] (partner 250 µM) (assay: relative viability (nuclei count vs DMSO), 5 days (fraction); higher = more cells survive). Details: first compound 0.04 µM.
Outline: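 A single step with final 0.05% Triton X-100, 1% formaldehyde and 1 ug/ml Hoechst fixed the cells and stained nuclei 5 days after treatment. Lung cancer cell lines in 1536-well plates had been treated by pin tool the day after seeding with one drug alone or a fixed anchor-drug dose plus five library-drug doses (not always all listed) in √10 steps, and nuclei were counted on 4× images. Relative viability is the ratio of nuclei in treated wells to nuclei in vehicle wells, taken as the median of duplicate plates.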

| Cell Line | relative viability |
| --- | --- |
| NCI-H838 | 0.685 |
| LCLC-103H | 0.39 |
| NCI-H520 | 0.738 |
| NCI-H2126 | 0.561 |
| EMC-BAC-2 | 0.52 |
| NCI-H2085 | 0.641 |
| HCC-366 | 0.574 |
| NCI-H1666 | 0.592 |
| NCI-H596 | 0.852 |
| NCI-H1395 | 0.489 |
| NCI-H2087 | 0.481 |
| NCI-H2342 | 0.632 |
| LK-2 | 0.641 |
| H3255 | 0.338 |
| COR-L23 | 0.466 |
| COR-L 105 | 0.659 |
| LOU-NH91 | 0.498 |
| ChaGo-K-1 | 0.584 |
| NCI-H358 | 0.348 |
| NCI-H2405 | 0.445 |
| A549 | 0.23 |
| NCI-H1563 | 0.688 |

Same assay, conditions: first compound 0.1265 µM

| Cell Line | relative viability |
| --- | --- |
| NCI-H522 | 0.666 |
| NCI-H1623 | 0.621 |
| NCI-H727 | 0.407 |
| NCI-H1650 | 0.396 |
| NCI-H1993 | 0.495 |
| SK-LU-1 | 0.413 |
| NCI-H838 | 0.448 |
| LCLC-103H | 0.304 |
| NCI-H520 | 0.51 |
| NCI-H2126 | 0.47 |
| EMC-BAC-2 | 0.441 |
| NCI-H2085 | 0.69 |
| HCC-366 | 0.562 |
| NCI-H1666 | 0.558 |
| NCI-H596 | 0.748 |
| NCI-H1395 | 0.452 |
| NCI-H2087 | 0.258 |
| NCI-H2342 | 0.593 |
| LK-2 | 0.382 |
| H3255 | 0.364 |
| COR-L23 | 0.373 |
| COR-L 105 | 0.462 |
| LOU-NH91 | 0.393 |
| ChaGo-K-1 | 0.544 |
| NCI-H358 | 0.241 |
| NCI-H2405 | 0.398 |
| A549 | 0.106 |
| NCI-H1563 | 0.622 |

Same assay, conditions: first compound 0.4 µM

| Cell Line | relative viability |
| --- | --- |
| NCI-H522 | 0.464 |
| NCI-H1623 | 0.459 |
| NCI-H727 | 0.426 |
| NCI-H1650 | 0.304 |
| NCI-H1993 | 0.438 |
| SK-LU-1 | 0.303 |
| NCI-H838 | 0.358 |
| LCLC-103H | 0.197 |
| NCI-H520 | 0.299 |
| NCI-H2126 | 0.424 |
| EMC-BAC-2 | 0.24 |
| NCI-H2085 | 0.515 |
| HCC-366 | 0.276 |
| NCI-H1666 | 0.476 |
| NCI-H596 | 0.547 |
| NCI-H1395 | 0.382 |
| NCI-H2087 | 0.206 |
| NCI-H2342 | 0.455 |
| LK-2 | 0.41 |
| H3255 | 0.345 |
| COR-L23 | 0.263 |
| COR-L 105 | 0.39 |
| LOU-NH91 | 0.208 |
| ChaGo-K-1 | 0.318 |
| NCI-H358 | 0.17 |
| NCI-H2405 | 0.286 |
| A549 | 0.0873 |
| NCI-H1563 | 0.53 |

Same assay, conditions: first compound 1.265 µM

| Cell Line | relative viability |
| --- | --- |
| NCI-H522 | 0.61 |
| NCI-H1623 | 0.364 |
| NCI-H727 | 0.307 |
| NCI-H1650 | 0.174 |
| NCI-H1993 | 0.465 |
| SK-LU-1 | 0.193 |
| NCI-H838 | 0.234 |
| LCLC-103H | 0.214 |
| NCI-H520 | 0.168 |
| NCI-H2126 | 0.309 |
| EMC-BAC-2 | 0.155 |
| NCI-H2085 | 0.322 |
| HCC-366 | 0.0732 |
| NCI-H1666 | 0.384 |
| NCI-H596 | 0.898 |
| NCI-H1395 | 0.313 |
| NCI-H2087 | 0.119 |
| NCI-H2342 | 0.4 |
| LK-2 | 0.22 |
| H3255 | 0.288 |
| COR-L23 | 0.108 |
| COR-L 105 | 0.183 |
| LOU-NH91 | 0.143 |
| ChaGo-K-1 | 0.225 |
| NCI-H358 | 0.121 |
| NCI-H2405 | 0.245 |
| A549 | 0.03 |
| NCI-H1563 | 0.329 |

Same assay, conditions: first compound 4 µM

| Cell Line | relative viability |
| --- | --- |
| NCI-H522 | 0.383 |
| NCI-H1623 | 0.385 |
| NCI-H727 | 0.402 |
| NCI-H1650 | 0.209 |
| NCI-H1993 | 0.524 |
| SK-LU-1 | 0.187 |
| NCI-H838 | 0.207 |
| LCLC-103H | 0.177 |
| NCI-H520 | 0.194 |
| NCI-H2126 | 0.222 |
| EMC-BAC-2 | 0.218 |
| NCI-H2085 | 0.232 |
| HCC-366 | 0.0339 |
| NCI-H1666 | 0.254 |
| NCI-H596 | 0.318 |
| NCI-H1395 | 0.267 |
| NCI-H2087 | 0.128 |
| NCI-H2342 | 0.383 |
| LK-2 | 0.265 |
| H3255 | 0.332 |
| COR-L23 | 0.0986 |
| COR-L 105 | 0.211 |
| LOU-NH91 | 0.166 |
| ChaGo-K-1 | 0.199 |
| NCI-H358 | 0.0927 |
| NCI-H2405 | 0.166 |
| A549 | 0.0515 |
| NCI-H1563 | 0.37 |
